Patent US6608073B1 (New Millennium Pharmaceutical Research, Inc., priority 1998, dated 2003)

Columns and labels:
[1] = Plasma levels of codeine in rats after intravenous or intranasal administration (HPLC)
Procedure: One hundred μL of rat plasma was treated with 100 μL of acetonitrile to precipitate the proteins. This mixture was centrifuged for 5 minutes at 5,000×g. The clear supernatant was injected onto the HPLC column.
The HPLC system included the following:
Column: Altex 5 micron Ultrasphere, 4.6 mm×25 cm
Mobile Phase: Acetonitrile: 0.01 M Acetate buffer (pH 4.0)−50:50
Standard Curve: See FIG. 1

[2] = Penetration of codeine into CSF of rats after intravenous or intranasal administration (HPLC); conditions: 60 minutes post-dose
Procedure: At 60 minutes post-dose, the rats were sacrificed, and the CSF (0.1 ml) was recovered and injected directly onto the HPLC column.

[3] = in vivo; cited from earlier work
[4] = rat, plasma, inhaled or intranasal, 10 mg/kg
[5] = rat, plasma, other: intranasal, 5 mg/kg
[6] = rat, plasma, other: intranasal, 10 mg/kg

## COc1ccc2c3c1O[C@H]1[C@@H](O)C=C[C@H]4[C@@H](C2)N(C)CC[C@@]341 [Codeine]
[1]; rat, plasma, inhaled or intranasal, 5 mg/kg
  AUC(0-t): 1480 ng·h/mL
[1]; [4]
  AUC(0-t): 2840 ng·h/mL
  bioavailability: 115%
[1]; rat, plasma, iv, 10 mg/kg
  AUC(0-t): 2460 ng·h/mL
  concentration at 0 min: 19400 ng/mL
  concentration at 2 min: 9400 ng/mL
  concentration at 5 min: 5200 ng/mL
  concentration at 10 min: 2700 ng/mL
  concentration at 20 min: 2040 ng/mL
  concentration at 40 min: 1220 ng/mL
  concentration at 60 min: 860 ng/mL
[1]; [5]
  concentration at 0 min: 0 ng/mL
  concentration at 2 min: 840 ng/mL
  concentration at 5 min: 2880 ng/mL
  concentration at 10 min: 3150 ng/mL
  concentration at 20 min: 2240 ng/mL
  concentration at 40 min: 600 ng/mL
  concentration at 60 min: 560 ng/mL
[1]; [6]
  concentration at 0 min: 0 ng/mL
  concentration at 2 min: 1400 ng/mL
  concentration at 5 min: 5100 ng/mL
  concentration at 10 min: 7620 ng/mL
  concentration at 20 min: 3320 ng/mL
  concentration at 40 min: 1420 ng/mL
  concentration at 60 min: 1100 ng/mL
[1]; rats, IN vs IV
  Absorption following intranasal administration compared with intravenous: rapidly and completely absorbed
[2]
  CSF levels for 5 mg/kg intranasally compared with 10 mg/kg intravenously: much higher
[3]
  Half-life in plasma: 2 to 4 h
